Data on eight compounds can be found in PubChem BioAssay (NCI).

The structures appear in SMILES notation. Several values for one entry are separate records, joined by “and”; a condition that tells them apart may be missing. Equal values may be shown once.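 Cells were grown in 96-well plates and exposed to each compound for 48 hours at five concentrations; endpoints were interpolated linearly between bracketing concentrations, or set to the highest concentration if not reached. Here, GI50 denotes the concentration required for 50% inhibition of growth. Definition used: TGI = concentration required for complete inhibition of growth.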 A value given as a limit tells only on which side of the number the result lay.

Some test systems named below: 786-0 renal; CAKI-1 renal; DU-145 prostate; HCC-2998 colon; HOP-92 NSCLC; HS 578T breast; MOLT-4 leukemia; PC-3 prostate; SK-MEL-2 melanoma; SK-OV-3 ovarian.
Test in all cases: NCI-60 cell line screen, 48 h

With `C[C@@H]1CC[C@@]2(OC1)O[C@H]1C[C@H]3[C@@H]4CC=C5C[C@@H](O[C@@H]6O[C@H](CO)[C@@H](O[C@@H]7O[C@@H](CO)[C@H](O)[C@H]7O)[C@H](O)[C@H]6O[C@@H]6O[C@@H](C)[C@H](O)[C@@H](O)[C@H]6O)CC[C@]5(C)[C@H]4CC[C@]3(C)[C@H]1[C@@H]2C`, the GI50 is 1.37 µM with 786-0 renal; 1.17 µM with DU-145 prostate; 1.71 µM with HCC-2998 colon; 0.806 µM with HOP-92 NSCLC; 1.45 µM with PC-3 prostate; 1.67 µM with SK-MEL-2 melanoma. In the assay on SK-OV-3 ovarian, the GI50 was 1.62 µM. Moreover, the TGI came out at 2.68 µM with 786-0 renal; 2.05 µM in the assay with CAKI-1 renal; 2.4 µM in the assay with DU-145 prostate; 3.1 µM in the assay on HCC-2998 colon; 2.1 µM with HOP-92 NSCLC; 2.49 µM in the assay on HS 578T breast. Moreover, the TGI worked out at 2.26 µM in the assay on MOLT-4 leukemia, 2.81 µM in the assay on PC-3 prostate, 3.04 µM in the assay on SK-MEL-2 melanoma and 3.04 µM in the assay with SK-OV-3 ovarian.

For `CC(=O)OC1CCC2(C)C(=CC(C3C=C4CC(OC(C)=O)CCC4(C)C4=C3C3CC5OC6(CCC(C)CO6)C(C)C5C3(C)CC4)C3=C2CCC2(C)C3CC3OC4(CCC(C)CO4)C(C)C32)C1` (stereo not drawn), the TGI with 786-0 renal is 29.6 µM; in the assay with CAKI-1 renal, 32.1 µM; with DU-145 prostate, 27.2 µM; in the assay on HOP-92 NSCLC it was 27.1 µM; with HS 578T breast, 17 µM; in the assay with MOLT-4 leukemia, 4.7 µM. The TGI amounted to 25.6 µM in the assay on PC-3 prostate, 33.9 µM in the assay with SK-MEL-2 melanoma and 32.7 µM in the assay with SK-OV-3 ovarian.

Consider `O=c1[nH]c(-c2ccc(C(F)(F)F)cc2)nc2c1CSCC2`, for which the GI50 was 35.3 µM with 786-0 renal; 13.7 µM in the assay with CAKI-1 renal; above 84.5 µM with DU-145 prostate; above 81.2 µM in the assay with HCC-2998 colon; 17.1 µM in the assay with HOP-92 NSCLC; 45.8 µM in the assay on HS 578T breast. The GI50 in the assay on MOLT-4 leukemia was above 100 µM; in the assay on PC-3 prostate it was above 77.3 µM; in the assay on SK-MEL-2 melanoma, 35.6 µM; with SK-OV-3 ovarian it was 30 µM. Besides, the TGI in the assay with 786-0 renal is above 100 µM; in the assay with CAKI-1 renal, above 100 µM; in the assay on DU-145 prostate it was above 100 µM; with HCC-2998 colon, above 100 µM; with HOP-92 NSCLC, 46.3 µM; with HS 578T breast it was above 100 µM. In addition, the TGI with MOLT-4 leukemia was above 100 µM; with PC-3 prostate it was above 100 µM; in the assay with SK-MEL-2 melanoma, above 93.2 µM; in the assay on SK-OV-3 ovarian it was 99.8 µM.

For the compound `COc1ccc(C(O)c2cc3c(N)c(C(=O)Nc4cccc(Br)c4)sc3nc2C)cc1` (stereo not drawn), the GI50 was 0.225 µM with 786-0 renal; 0.141 µM with CAKI-1 renal; 0.128 µM in the assay on DU-145 prostate; 0.121 µM with HCC-2998 colon; 0.554 µM in the assay on HOP-92 NSCLC; 0.101 µM with HS 578T breast. Besides, the GI50 in the assay on MOLT-4 leukemia was 0.14 µM; in the assay on PC-3 prostate, 0.204 µM; with SK-MEL-2 melanoma it was 0.572 µM; in the assay with SK-OV-3 ovarian, 0.197 µM. For the same compound, the TGI was above 39.4 µM in the assay on 786-0 renal; above 32 µM in the assay with CAKI-1 renal; 11.9 µM in the assay on DU-145 prostate; 15.5 µM in the assay with HCC-2998 colon; 21.3 µM with HOP-92 NSCLC; above 21.7 µM with HS 578T breast. The TGI in the assay with MOLT-4 leukemia was above 52.8 µM; with PC-3 prostate, above 100 µM; in the assay with SK-MEL-2 melanoma, above 21.9 µM; in the assay with SK-OV-3 ovarian, above 65.1 µM.

As for `CN(C)c1ccc(/C=C/c2ccnc3ccccc23)cc1`, the GI50 in the assay with 786-0 renal is 3.77 µM; in the assay with CAKI-1 renal it was 9.68 µM; in the assay with DU-145 prostate, 5.86 µM; with HCC-2998 colon, 5.95 µM; in the assay on HOP-92 NSCLC, 0.651 µM; in the assay on HS 578T breast, 3.67 µM. For the same compound, the GI50 was 3.59 µM in the assay with MOLT-4 leukemia, 3.28 µM in the assay with PC-3 prostate, 26.2 µM with SK-MEL-2 melanoma and 4.42 µM in the assay on SK-OV-3 ovarian. Also, the TGI in the assay on 786-0 renal was > 100 µM and 21.6 µM; in the assay on CAKI-1 renal it was > 100 µM and 45 µM; in the assay with DU-145 prostate, above 100 µM; in the assay with HCC-2998 colon, > 100 µM and 33 µM; with HOP-92 NSCLC it was > 100 µM and 10.8 µM; with HS 578T breast, 57 µM and > 30.1 µM. Besides, the TGI in the assay with MOLT-4 leukemia is 43.6 µM; with PC-3 prostate, > 100 µM and 46.6 µM; in the assay on SK-MEL-2 melanoma it was above 100 µM; in the assay with SK-OV-3 ovarian, > 100 µM and 48.7 µM.

On to `FC(F)(F)c1ccc(-c2cnc(Br)nc2NC2CCCCCC2)cc1`, for which the GI50 is 91.2 µM with 786-0 renal; 92.9 µM in the assay with CAKI-1 renal; above 100 µM with DU-145 prostate; above 100 µM in the assay with HCC-2998 colon; above 100 µM in the assay with HS 578T breast; 41 µM with MOLT-4 leukemia. In addition, the GI50 was 35.4 µM with PC-3 prostate and above 100 µM in the assay with SK-OV-3 ovarian. The TGI in the assay with 786-0 renal, in the assay with CAKI-1 renal, in the assay with DU-145 prostate, in the assay on HCC-2998 colon, with HS 578T breast and in the assay on MOLT-4 leukemia was above 100 µM throughout. In addition, the TGI in the assay on PC-3 prostate and with SK-OV-3 ovarian was above 100 µM in each case.

Take `CN(Cc1cnc2nc(N)nc(N)c2n1)c1ccc(C(=O)NC(CCC(=O)O)C(=O)O)cc1` (stereo not drawn): the GI50 in the assay with 786-0 renal was 0.0428 µM; in the assay on CAKI-1 renal it was 0.0544 µM; in the assay on DU-145 prostate, 0.204 µM; in the assay on HCC-2998 colon it was 0.0992 µM; with HS 578T breast it was above 100 µM; in the assay on MOLT-4 leukemia it was 0.389 µM. The GI50 in the assay with PC-3 prostate is 2.56 µM; in the assay on SK-OV-3 ovarian, 6.04 µM. For the same compound, the TGI with 786-0 renal, with CAKI-1 renal, in the assay on DU-145 prostate, in the assay with HCC-2998 colon, in the assay on HOP-92 NSCLC and in the assay with HS 578T breast was above 100 µM in each case. Further, the TGI with MOLT-4 leukemia, in the assay on PC-3 prostate, in the assay on SK-MEL-2 melanoma and with SK-OV-3 ovarian was above 100 µM in each case.

As to `O=Nc1c(O)ccc2ccccc12`, the GI50 with 786-0 renal was 10.2 µM; with CAKI-1 renal, 3.1 µM; with DU-145 prostate it was 3.5 µM; with HCC-2998 colon, 13.4 µM; in the assay with HS 578T breast, 2.45 µM; in the assay with MOLT-4 leukemia it was 3.58 µM. The GI50 in the assay on PC-3 prostate is 1.85 µM; in the assay with SK-MEL-2 melanoma, 2.12 µM; in the assay with SK-OV-3 ovarian, 15.3 µM. Moreover, the TGI is 22 µM in the assay on 786-0 renal; 12.1 µM with CAKI-1 renal; 10.5 µM in the assay with DU-145 prostate; 27.9 µM with HCC-2998 colon; 8.24 µM in the assay on HS 578T breast; 28.6 µM in the assay on MOLT-4 leukemia. In addition, the TGI in the assay with PC-3 prostate worked out at 8.29 µM; in the assay on SK-MEL-2 melanoma it was 4.36 µM; in the assay with SK-OV-3 ovarian, 28.9 µM.
